The structures appear in SMILES notation. Active and inactive are the calls of the source. The calls are words filed in the database; no cut-off is given here. Where a SMILES comes first, the peptide text is derived from it.

The target in test [1] is T1, Dickkopf-related protein 1 (Homo sapiens) (UniProt O94907).
T1 sequence (whole entry): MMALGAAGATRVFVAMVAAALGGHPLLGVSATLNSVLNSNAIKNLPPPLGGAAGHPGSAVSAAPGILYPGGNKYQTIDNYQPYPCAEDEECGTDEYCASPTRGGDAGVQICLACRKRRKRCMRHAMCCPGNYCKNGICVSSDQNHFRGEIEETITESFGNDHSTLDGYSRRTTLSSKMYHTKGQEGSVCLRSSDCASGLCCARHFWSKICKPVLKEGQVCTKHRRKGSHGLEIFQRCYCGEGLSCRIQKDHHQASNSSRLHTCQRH
The test can be described thus: Inhibition of biotin-labeled human recombinant DKK1 assessed as reduction in DKK1 interaction with LRP-6/Fc incubated overnight by chemiluminescence based Alpha-screen assay. (Alpha assays give light when donor and acceptor beads are brought close together.)

Test [2] has as its target T2, Dickkopf WNT-signaling pathway inhibitor 1 (Rattus norvegicus) (UniProt A6I0Z0).
T2 sequence (whole entry): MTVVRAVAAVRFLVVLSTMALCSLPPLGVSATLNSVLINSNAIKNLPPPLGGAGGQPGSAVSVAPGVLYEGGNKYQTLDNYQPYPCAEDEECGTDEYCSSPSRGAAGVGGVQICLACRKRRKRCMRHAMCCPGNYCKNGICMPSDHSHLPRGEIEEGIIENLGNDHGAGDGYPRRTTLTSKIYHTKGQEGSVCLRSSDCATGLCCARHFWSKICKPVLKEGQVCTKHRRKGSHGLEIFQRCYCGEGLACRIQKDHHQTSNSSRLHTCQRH
The test can be described thus: Inhibition of biotin-labeled rat recombinant DKK1 assessed as reduction in DKK1 interaction with LRP-6/Fc incubated overnight by chemiluminescence based Alpha-screen assay.

Test [3] concerns the target T3, Dickkopf-related protein 1 (Homo sapiens, UniProt O94907).
T3 sequence (O94907 whole entry): T1 sequence (whole entry)
As to the kind of experiment: Inhibition of human DKK1 in MC3T3E1/TetON-Wnt1/STF-Luc#5 cells assessed as DKK1 neutralizing activity by Wnt1-induced TCF/LEF luciferase reporter gene assay. (A reporter such as luciferase makes a cellular process visible.)

In general, IC50 refers to the concentration that gives 50% inhibition. For `CSCC[C@H](NC(=O)[C@@H]1CCCN1C(=O)[C@H](Cc1ccc(O)cc1)NC(=O)[C@H](CS)NC(=O)[C@H](Cc1cnc[nH]1)NC(=O)[C@@H]1CCCN1C(=O)[C@H](Cc1cnc[nH]1)NC(=O)[C@H](CC(N)=O)NC(=O)[C@H](CCCNC(=N)N)NC(=O)[C@H](CS)NC(=O)[C@H](CCC(N)=O)NC(=O)[C@H](Cc1ccccc1)NC(=O)[C@H](Cc1ccc(O)cc1)NC(=O)[C@H](CO)NC(=O)[C@H](CCC(=O)O)NC(=O)[C@@H]1CCCN1C(=O)[C@@H](N)CS)C(=O)N[C@@H](CCC(=O)O)C(=O)N[C@@H](Cc1c[nH]c2ccccc12)C(=O)N[C@@H](CCCNC(=N)N)C(=O)N[C@@H](CS)C(=O)N[C@@H](CC(=O)O)C(=O)NCC(=O)N[C@@H](Cc1ccccc1)C(=O)N[C@@H](CCC(=O)O)C(=O)N[C@@H](CC(=O)O)C(=O)N[C@@H](CS)C(=O)N[C@H](C(=O)N[C@@H](CC(=O)O)C(=O)NCC(=O)N[C@@H](CO)C(=O)N[C@@H](CC(=O)O)C(=O)N[C@@H](CCC(=O)O)C(=O)N[C@@H](CC(C)C)C(=O)N[C@@H](CC(=O)O)C(=O)N[C@@H](CS)C(=O)NCC(=O)NCC(=O)NCC(=O)NCC(=O)O)C(C)C` (H-CPESYFQCRNHPHCYPMEWRCDGFEDCVDGSDELDCGGGG-OH), the inhibition result in test [1] and in test [2] was “Active” throughout. For the same compound, the IC50 in test [3] was 0.8 to 3 nM.
Turning to `CC[C@H](C)[C@H](NC(=O)[C@H](CS)NC(=O)[C@H](CC(=O)O)NC(=O)[C@@H]1CCCN1C(=O)[C@H](Cc1ccccc1)NC(=O)CNC(=O)[C@H](CC(=O)O)NC(=O)[C@H](CS)NC(=O)[C@H](CCCNC(=N)N)NC(=O)[C@H](Cc1c[nH]c2ccccc12)NC(=O)[C@H](CCC(=O)O)NC(=O)[C@H](CCSC)NC(=O)[C@@H]1CCCN1C(=O)[C@H](Cc1ccc(O)cc1)NC(=O)[C@H](CS)NC(=O)[C@H](Cc1cnc[nH]1)NC(=O)[C@@H]1CCCN1C(=O)[C@H](Cc1cnc[nH]1)NC(=O)[C@H](CCCCN)NC(=O)[C@H](CCCNC(=N)N)NC(=O)[C@H](CS)NC(=O)[C@H](CCC(N)=O)NC(=O)[C@H](Cc1ccccc1)NC(=O)[C@H](Cc1ccc(O)cc1)NC(=O)[C@H](CO)NC(=O)[C@H](C)NC(=O)[C@@H]1CCCN1C(=O)[C@@H](N)CS)C(=O)N[C@@H](CC(=O)O)C(=O)NCC(=O)N[C@@H](CO)C(=O)N[C@@H](CC(=O)O)C(=O)N[C@@H](CCC(=O)O)C(=O)N[C@@H](CCC(=O)O)C(=O)N[C@@H](CCCNC(=N)N)C(=O)N[C@@H](CS)C(=O)NCC(=O)NCC(=O)NCC(=O)NCC(=O)O` (H-CPASYFQCRKHPHCYPMEWRCDGFPDCIDGSDEERCGGGG-OH), the inhibition result in test [1] and in test [2] was “Active” each time. Further, the IC50 in test [3] lay in the range of 0.8 to 3 nM.
With `CSCC[C@H](NC(=O)[C@@H]1CCCN1C(=O)[C@H](Cc1cnc[nH]1)NC(=O)[C@H](CS)NC(=O)[C@@H]1CCCN1C(=O)[C@@H]1CCCN1C(=O)[C@H](CC(=O)O)NC(=O)[C@H](CC(N)=O)NC(=O)[C@H](CCCNC(=N)N)NC(=O)[C@H](CS)NC(=O)[C@H](CCC(N)=O)NC(=O)[C@H](Cc1ccccc1)NC(=O)[C@H](Cc1ccc(O)cc1)NC(=O)[C@@H]1CCCN1C(=O)[C@H](C)NC(=O)[C@@H]1CCCN1C(=O)[C@@H](N)CS)C(=O)N[C@@H](CC(=O)O)C(=O)N[C@@H](Cc1c[nH]c2ccccc12)C(=O)N[C@@H](CCCNC(=N)N)C(=O)N[C@@H](CS)C(=O)N[C@@H](CC(=O)O)C(=O)NCC(=O)N[C@@H](Cc1ccccc1)C(=O)N1CCC[C@H]1C(=O)N[C@@H](CC(=O)O)C(=O)N[C@@H](CS)C(=O)N[C@H](C(=O)N[C@@H](CC(=O)O)C(=O)NCC(=O)N[C@@H](CO)C(=O)N[C@@H](CC(=O)O)C(=O)N[C@@H](CCC(=O)O)C(=O)N[C@@H](CCCCN)C(=O)NCC(=O)N[C@@H](CS)C(=O)NCC(=O)NCC(=O)NCC(=O)NCC(=O)O)C(C)C` (H-CPAPYFQCRNDPPCHPMDWRCDGFPDCVDGSDEKGCGGGG-OH), the inhibition entry in test [1] and in test [2] was “Active” throughout. Moreover, in test [3], the IC50 fell in the range of 0.8 to 3 nM.
As for `CC[C@H](C)[C@H](NC(=O)[C@H](CS)NC(=O)[C@H](CC(=O)O)NC(=O)[C@@H]1CCCN1C(=O)[C@H](Cc1ccccc1)NC(=O)CNC(=O)[C@H](CC(=O)O)NC(=O)[C@H](CS)NC(=O)[C@H](CCCNC(=N)N)NC(=O)[C@H](Cc1c[nH]c2ccccc12)NC(=O)[C@H](CCC(=O)O)NC(=O)[C@H](CCSC)NC(=O)[C@@H]1CCCN1C(=O)[C@H](Cc1ccc(O)cc1)NC(=O)[C@H](CS)NC(=O)[C@H](Cc1cnc[nH]1)NC(=O)[C@@H]1CCCN1C(=O)[C@H](Cc1cnc[nH]1)NC(=O)[C@H](CC(N)=O)NC(=O)[C@H](CCCNC(=N)N)NC(=O)[C@H](CS)NC(=O)[C@H](CCC(N)=O)NC(=O)[C@H](Cc1ccccc1)NC(=O)[C@H](Cc1ccc(O)cc1)NC(=O)[C@H](CO)NC(=O)[C@@H](NC(=O)[C@@H]1CCCN1C(=O)[C@@H](N)CS)C(C)C)C(=O)N[C@@H](CC(=O)O)C(=O)NCC(=O)N[C@@H](CO)C(=O)N[C@@H](CC(=O)O)C(=O)N[C@@H](CCC(=O)O)C(=O)N[C@@H](CCC(=O)O)C(=O)NCC(=O)N[C@@H](CS)C(=O)NCC(=O)NCC(=O)NCC(=O)NCC(=O)O` (H-CPVSYFQCRNHPHCYPMEWRCDGFPDCIDGSDEEGCGGGG-OH), the inhibition result in test [1] and in test [2] was “Active” in each case. Moreover, in test [3], the IC50 lay within 0.8 to 3 nM.
Turning to `CSCC[C@H](NC(=O)[C@@H]1CCCN1C(=O)[C@H](Cc1ccc(O)cc1)NC(=O)[C@H](CS)NC(=O)[C@H](Cc1cnc[nH]1)NC(=O)[C@@H]1CCCN1C(=O)[C@H](Cc1cnc[nH]1)NC(=O)[C@H](Cc1ccc(O)cc1)NC(=O)[C@H](CCCNC(=N)N)NC(=O)[C@H](CS)NC(=O)[C@H](CCCCN)NC(=O)[C@H](Cc1ccccc1)NC(=O)[C@H](Cc1ccc(O)cc1)NC(=O)[C@H](CO)NC(=O)[C@H](C)NC(=O)[C@@H]1CCCN1C(=O)[C@@H](N)CS)C(=O)N[C@@H](CCC(=O)O)C(=O)N[C@@H](Cc1c[nH]c2ccccc12)C(=O)N[C@@H](CCCNC(=N)N)C(=O)N[C@@H](CS)C(=O)N[C@@H](CC(=O)O)C(=O)NCC(=O)N[C@@H](Cc1ccccc1)C(=O)N[C@@H](CO)C(=O)N[C@@H](CC(=O)O)C(=O)N[C@@H](CS)C(=O)N[C@H](C(=O)N[C@@H](CC(=O)O)C(=O)NCC(=O)N[C@@H](CO)C(=O)N[C@@H](CC(=O)O)C(=O)N[C@@H](CCC(=O)O)C(=O)N[C@@H](CCC(=O)O)C(=O)N[C@@H](C)C(=O)N[C@@H](CS)C(=O)NCC(=O)NCC(=O)NCC(=O)NCC(=O)O)C(C)C` (H-CPASYFKCRYHPHCYPMEWRCDGFSDCVDGSDEEACGGGG-OH), the inhibition result in test [1] and in test [2] was “Active” throughout. Further, the IC50 in test [3] lay within 0.8 to 3 nM.
Turning to `CC[C@H](C)[C@H](NC(=O)[C@H](CS)NC(=O)[C@H](CC(=O)O)NC(=O)[C@@H]1CCCN1C(=O)[C@H](Cc1ccccc1)NC(=O)CNC(=O)[C@H](CC(=O)O)NC(=O)[C@H](CS)NC(=O)[C@H](CCCNC(=N)N)NC(=O)[C@H](Cc1c[nH]c2ccccc12)NC(=O)[C@H](CCC(=O)O)NC(=O)[C@H](CCSC)NC(=O)[C@@H]1CCCN1C(=O)[C@H](Cc1ccc(O)cc1)NC(=O)[C@H](CS)NC(=O)[C@H](Cc1cnc[nH]1)NC(=O)[C@@H]1CCCN1C(=O)[C@H](Cc1cnc[nH]1)NC(=O)[C@H](Cc1c[nH]c2ccccc12)NC(=O)[C@H](CCCNC(=N)N)NC(=O)[C@H](CS)NC(=O)[C@H](CCC(N)=O)NC(=O)[C@H](Cc1ccccc1)NC(=O)[C@H](Cc1ccc(O)cc1)NC(=O)[C@H](CO)NC(=O)[C@H](C)NC(=O)[C@@H]1CCCN1C(=O)[C@@H](N)CS)C(=O)N[C@@H](CC(=O)O)C(=O)NCC(=O)N[C@@H](CO)C(=O)N[C@@H](CC(=O)O)C(=O)N[C@@H](CCC(=O)O)C(=O)N[C@@H](CCC(=O)O)C(=O)N[C@@H](CO)C(=O)N[C@@H](CS)C(=O)NCC(=O)NCC(=O)NCC(=O)NCC(=O)O` (H-CPASYFQCRWHPHCYPMEWRCDGFPDCIDGSDEESCGGGG-OH), the inhibition entry in test [1] and in test [2] was “Active” throughout. The IC50 in test [3] lay within 0.8 to 3 nM.
On to `CSCC[C@H](NC(=O)[C@@H]1CCCN1C(=O)[C@H](Cc1ccc(O)cc1)NC(=O)[C@H](CS)NC(=O)[C@H](Cc1cnc[nH]1)NC(=O)[C@@H]1CCCN1C(=O)[C@H](Cc1cnc[nH]1)NC(=O)[C@H](CCCNC(=N)N)NC(=O)[C@H](CCCNC(=N)N)NC(=O)[C@H](CS)NC(=O)[C@H](CCC(N)=O)NC(=O)[C@H](Cc1ccccc1)NC(=O)[C@H](Cc1ccc(O)cc1)NC(=O)[C@H](CO)NC(=O)[C@H](C)NC(=O)[C@@H]1CCCN1C(=O)[C@@H](N)CS)C(=O)N[C@@H](CCC(=O)O)C(=O)N[C@@H](Cc1c[nH]c2ccccc12)C(=O)N[C@@H](CCCNC(=N)N)C(=O)N[C@@H](CS)C(=O)N[C@@H](CC(=O)O)C(=O)NCC(=O)N[C@@H](Cc1ccccc1)C(=O)N1CCC[C@H]1C(=O)N[C@@H](CC(=O)O)C(=O)N[C@@H](CS)C(=O)N[C@@H](CC(C)C)C(=O)N[C@@H](CC(=O)O)C(=O)NCC(=O)N[C@@H](CO)C(=O)N[C@@H](CC(=O)O)C(=O)N[C@@H](CCC(=O)O)C(=O)N[C@@H](CCC(=O)O)C(=O)NCC(=O)N[C@@H](CS)C(=O)NCC(=O)NCC(=O)NCC(=O)NCC(=O)O` (H-CPASYFQCRRHPHCYPMEWRCDGFPDCLDGSDEEGCGGGG-OH), for which the inhibition entry in test [1] and in test [2] was “Active” each time. Also, the IC50 in test [3] was 0.8 to 3 nM.

For the origin of these results see ChEMBL document CHEMBL4417633, “Inhibitory polypeptides specific to WNT inhibitors” (2017).
